The record followed here is PubChem BioAssay (NCI).

Among the test systems are A549 NSCLC; ACHN renal; BT-549 breast; HS 578T breast; MDA-MB-231 breast; MOLT-4 leukemia; NCI/ADR-RES ovarian; SF-268 CNS; TK-10 renal; UACC-62 melanoma.
Holding throughout (test): growth of human tumour cells (NCI), 48 h

Values joined by “and” are separate entries in the source; they are usually repeats but may differ in a detail not shown here. Equal entries are not always repeated.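 Five concentrations, 48 hours, 96-well plates. Here, GI50 denotes the concentration required for 50% inhibition of growth. TGI: total growth inhibition.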

In the case of `Clc1ccc(-c2nn3ncccc3c2-c2ccnc(Nc3ccccc3)n2)cc1`, the GI50 in the assay with A549 NSCLC was 11.3 µM; with ACHN renal, 3.69 µM; with BT-549 breast, 10.7 µM; in the assay with HS 578T breast, 6.4 µM; in the assay on MDA-MB-231 breast, 13.4 µM; in the assay on MOLT-4 leukemia, 5.77 µM. Also, the GI50 with NCI/ADR-RES ovarian is 8.01 µM; with SF-268 CNS, 11.5 µM; in the assay on TK-10 renal it was 7.43 µM; in the assay with UACC-62 melanoma, above 13 µM. For the same molecule, the TGI is above 25 µM in the assay on A549 NSCLC; above 25 µM in the assay with ACHN renal; above 25 µM in the assay on BT-549 breast; above 22 µM in the assay on HS 578T breast; above 25 µM in the assay with MDA-MB-231 breast; above 25 µM in the assay on MOLT-4 leukemia. The TGI with NCI/ADR-RES ovarian is above 25 µM; in the assay with SF-268 CNS it was above 25 µM; in the assay with TK-10 renal, above 20.4 µM; in the assay with UACC-62 melanoma, above 25 µM.

For `CN1c2ccccc2S(=O)(=O)n2c(COc3ccc(Cl)cc3)nnc21`, the TGI in the assay with A549 NSCLC, in the assay with ACHN renal, with BT-549 breast, with HS 578T breast, with MDA-MB-231 breast and with MOLT-4 leukemia was above 100 µM each time. Also, the TGI in the assay on NCI/ADR-RES ovarian, in the assay with SF-268 CNS, with TK-10 renal and with UACC-62 melanoma was above 100 µM in each case.

As for `CCCN(CCC)CCCNC(=O)c1cc2c(-c3ccc(OC)c(OC)c3)nn(C)c2s1`, the GI50 is 36.5 µM with A549 NSCLC; 17.2 µM with ACHN renal; 20.9 µM in the assay on BT-549 breast; 22.9 µM in the assay on HS 578T breast; 18.8 µM in the assay with MDA-MB-231 breast; 17.6 µM with MOLT-4 leukemia. Moreover, the GI50 was 33.4 µM with NCI/ADR-RES ovarian, 31.1 µM in the assay with SF-268 CNS, 40.9 µM in the assay with TK-10 renal and 16.9 µM in the assay with UACC-62 melanoma. For the same molecule, the TGI is above 100 µM with A549 NSCLC; 39.5 µM with ACHN renal; 87 µM with BT-549 breast; above 100 µM in the assay with HS 578T breast; 41.3 µM in the assay on MDA-MB-231 breast; 59.5 µM in the assay on MOLT-4 leukemia. Besides, the TGI in the assay on NCI/ADR-RES ovarian was above 100 µM; in the assay on SF-268 CNS, above 100 µM; in the assay on TK-10 renal, above 100 µM; in the assay on UACC-62 melanoma, 33 µM.

Consider `C/C(=C\CCc1ccoc1)CC/C=C(\C)CCCN1CCC(CO)CC1`, for which the GI50 in the assay on A549 NSCLC is 3.26 µM; in the assay on ACHN renal, 4.32 µM; in the assay with BT-549 breast, 2.77 µM; in the assay with HS 578T breast it was 2.6 µM; in the assay with MDA-MB-231 breast, 1.73 µM; in the assay with MOLT-4 leukemia, 2.32 µM. The GI50 in the assay on NCI/ADR-RES ovarian was 3.69 µM; in the assay with SF-268 CNS, 5.65 µM; in the assay on TK-10 renal it was 2.41 µM; in the assay on UACC-62 melanoma, 1.77 µM. For the same molecule, the TGI in the assay with A549 NSCLC was found to be 13.8 µM; in the assay on ACHN renal, 16.7 µM; in the assay on BT-549 breast, 12.1 µM; in the assay with HS 578T breast, 8.08 µM; in the assay with MDA-MB-231 breast, 4.39 µM; in the assay on MOLT-4 leukemia, 5.67 µM. Also, the TGI was found to be 14.6 µM in the assay on NCI/ADR-RES ovarian, 19.4 µM with SF-268 CNS, 6.54 µM in the assay with TK-10 renal and 3.74 µM with UACC-62 melanoma.

Turning to `N#CN1CCC[C@H]1C(=O)N1CCc2c(-c3[nH]nc4ncccc34)cccc21`, the GI50 is 0.106 µM in the assay on A549 NSCLC; below 0.01 µM in the assay with ACHN renal; below 0.01 µM in the assay on BT-549 breast; 0.239 µM with HS 578T breast; below 0.01 µM with MDA-MB-231 breast; below 0.01 µM with MOLT-4 leukemia. Moreover, the GI50 was 0.0103 µM with NCI/ADR-RES ovarian, below 0.01 µM in the assay with SF-268 CNS, 0.525 µM in the assay with TK-10 renal and below 0.01 µM with UACC-62 melanoma. Also, the TGI in the assay with A549 NSCLC was above 25.1 µM; with ACHN renal, 7.89 µM; in the assay with BT-549 breast, 0.0993 µM; in the assay with HS 578T breast, above 100 µM; in the assay on MDA-MB-231 breast it was 0.177 µM; in the assay on MOLT-4 leukemia, 11 µM. Moreover, the TGI with NCI/ADR-RES ovarian was above 31.7 µM; in the assay on SF-268 CNS, 13.2 µM; in the assay with TK-10 renal, 4.17 µM; in the assay on UACC-62 melanoma, 12.2 µM.

For `Cc1nc(/N=C(\N)NC(=O)Nc2ccccc2Cl)sc1C`, the GI50 in the assay with A549 NSCLC is 0.675 µM; in the assay on ACHN renal it was 0.638 µM; in the assay with BT-549 breast, 0.637 µM; in the assay with HS 578T breast, 0.548 µM; in the assay on MDA-MB-231 breast, 1.06 µM; in the assay on MOLT-4 leukemia it was 0.492 µM. Besides, the GI50 is 0.271 µM in the assay with NCI/ADR-RES ovarian, 1.35 µM with SF-268 CNS, 1.84 µM in the assay on TK-10 renal and 0.488 µM in the assay on UACC-62 melanoma. The TGI in the assay on A549 NSCLC is above 100 µM; in the assay with ACHN renal, 7.79 µM; in the assay with BT-549 breast, 10.3 µM; with HS 578T breast it was 5.55 µM; in the assay on MDA-MB-231 breast, 50.3 µM; in the assay with MOLT-4 leukemia, above 100 µM. Moreover, the TGI in the assay on NCI/ADR-RES ovarian is 3.28 µM; in the assay on SF-268 CNS, above 100 µM; in the assay on TK-10 renal, 6.41 µM; in the assay on UACC-62 melanoma it was above 100 µM.

With `C[C@H]1CC[C@@H]2[C@@H](C)[C@H]3[C@H](C[C@H]4[C@@H]5CC=C6C[C@@H](O)CC[C@]6(C)[C@H]5C[C@H](O)[C@]34C)N2C1`, the TGI in the assay with A549 NSCLC, with ACHN renal, with BT-549 breast, in the assay on HS 578T breast, in the assay with MDA-MB-231 breast and in the assay on MOLT-4 leukemia was above 100 µM each time. For the same molecule, the TGI with NCI/ADR-RES ovarian, in the assay with SF-268 CNS, with TK-10 renal and in the assay with UACC-62 melanoma was above 100 µM in each case.

Consider `COc1c(CNC(=O)CCl)cc2[nH]c(C)cc2c1CNC(=O)CCl`, for which the GI50 in the assay with A549 NSCLC was 7.38 µM; in the assay with ACHN renal it was 5.47 µM; with BT-549 breast, 17 µM; in the assay with HS 578T breast it was 4.97 µM; in the assay on MDA-MB-231 breast it was 6.12 µM; in the assay with MOLT-4 leukemia it was 5.19 µM. For the same molecule, the GI50 in the assay on NCI/ADR-RES ovarian was 56.1 µM; with SF-268 CNS it was 3.44 µM; in the assay on TK-10 renal it was 9.17 µM; with UACC-62 melanoma, 1.28 µM. For the same molecule, the TGI turned out to be 26.7 µM in the assay with A549 NSCLC; 31.6 µM with ACHN renal; 35.2 µM with BT-549 breast; 76.8 µM in the assay on HS 578T breast; 41.3 µM with MDA-MB-231 breast; 83.8 µM in the assay with MOLT-4 leukemia. The TGI in the assay on NCI/ADR-RES ovarian was above 100 µM; with SF-268 CNS it was 21.7 µM; in the assay on TK-10 renal, 56.7 µM; with UACC-62 melanoma it was 4.11 µM.

With `COc1cc2c3c(n(C)c(=O)c2cc1OC)-c1cc2c(cc1/C3=C\CCCBr)OCO2`, the GI50 is above 100 µM with A549 NSCLC; 7.37 µM with ACHN renal; above 20.5 µM in the assay on BT-549 breast; 14.4 µM with HS 578T breast; 9.16 µM in the assay on MDA-MB-231 breast; 21.4 µM in the assay on MOLT-4 leukemia. Besides, the GI50 was 16.1 µM in the assay with SF-268 CNS, 15.2 µM in the assay with TK-10 renal and 7.55 µM in the assay with UACC-62 melanoma. In addition, the TGI in the assay with A549 NSCLC is above 100 µM; in the assay on ACHN renal, 25.3 µM; with BT-549 breast it was above 51.9 µM; with HS 578T breast, above 57.4 µM; in the assay on MDA-MB-231 breast it was above 45.3 µM; in the assay on MOLT-4 leukemia, above 66.2 µM. Also, the TGI is above 100 µM in the assay with NCI/ADR-RES ovarian, above 54.8 µM with SF-268 CNS, above 53.4 µM with TK-10 renal and 28.9 µM in the assay with UACC-62 melanoma.

`COc1cc([C@@H]2c3cc4c(cc3[C@H](O)[C@H]3COC(=O)[C@H]23)OCO4)cc(OC)c1OC`: the GI50 in the assay with A549 NSCLC is below 0.005 µM; in the assay on ACHN renal, below 0.01 µM; in the assay with BT-549 breast, below 0.01 µM; with HS 578T breast it was below 0.01 µM; in the assay on MDA-MB-231 breast, below 0.01 µM; in the assay with MOLT-4 leukemia it was below 0.01 µM. The GI50 in the assay with SF-268 CNS is below 0.01 µM; with TK-10 renal it was below 0.005 µM; with UACC-62 melanoma it was below 0.01 µM. The TGI was > 100 µM and 50 µM in the assay with A549 NSCLC; > 100 µM and 50 µM in the assay on ACHN renal; > 100 µM and 50 µM and > 94 µM with HS 578T breast; below 0.005 µM with NCI/ADR-RES ovarian; > 63.4 µM and 50 µM and > 39.2 µM in the assay with SF-268 CNS; > 100 µM and 50 µM in the assay on TK-10 renal. In the assay with UACC-62 melanoma, the TGI is > 100 µM and 34.7 µM.

As for `CCCCN(CCCC)CCCN=c1nc2c(c(N)n1-c1ccccc1)c(=S)n(-c1ccccc1)c(=S)n2-c1ccccc1`, the GI50 with A549 NSCLC was 1.46 µM; in the assay on ACHN renal, 0.567 µM; with BT-549 breast, 1.67 µM; with HS 578T breast, 0.78 µM; in the assay with MDA-MB-231 breast, 0.555 µM; in the assay with MOLT-4 leukemia, 0.141 µM. Besides, the GI50 is 2.09 µM with NCI/ADR-RES ovarian, 1.14 µM with SF-268 CNS, 1.28 µM with TK-10 renal and 0.714 µM in the assay with UACC-62 melanoma. Besides, the TGI in the assay on A549 NSCLC was 3.48 µM; with ACHN renal, 1.8 µM; in the assay on BT-549 breast, 3.38 µM; in the assay on HS 578T breast it was 3.16 µM; in the assay on MDA-MB-231 breast, 1.53 µM; in the assay with MOLT-4 leukemia, above 34.1 µM. The TGI came to 4.12 µM in the assay with NCI/ADR-RES ovarian, 2.47 µM with SF-268 CNS, 2.69 µM in the assay on TK-10 renal and 2.02 µM in the assay with UACC-62 melanoma.

For the molecule `CC1=C(/C=C/C(C)=C/C=C/C(C)=C/C(=O)Nc2ccc(O)cc2)C(C)(C)CCC1`, the GI50 was 2.43 µM with A549 NSCLC; 4.79 µM with ACHN renal; 0.826 µM with BT-549 breast; 6.25 µM with HS 578T breast; 1.79 µM in the assay with MDA-MB-231 breast; 0.391 µM with MOLT-4 leukemia. Moreover, the GI50 in the assay on NCI/ADR-RES ovarian was 2.29 µM; with SF-268 CNS it was 1.52 µM; with TK-10 renal it was 5.07 µM. In addition, the TGI with A549 NSCLC was 14.2 µM and 26.5 µM; with ACHN renal, 16.3 µM and 17.7 µM; in the assay with BT-549 breast, 7.44 µM and 18.6 µM; in the assay with HS 578T breast, 27.4 µM and 13.7 µM; in the assay on MDA-MB-231 breast it was 10.1 µM and 6.06 µM; in the assay on MOLT-4 leukemia, 2.11 µM and 5.53 µM. Also, the TGI is 7.07 µM and 18.4 µM in the assay with NCI/ADR-RES ovarian; 3.94 µM and 14.2 µM in the assay with SF-268 CNS; 15.5 µM and 35.4 µM in the assay with TK-10 renal; 6.94 µM and 7.34 µM in the assay with UACC-62 melanoma.
